In BigSolDB 2.1:

C[C@@]12C[C@H]3OC(=O)[C@@H]1CO[C@]14O[C@@]5([C@H]2C1=O)[C@@]3(C)OC(=O)[C@@]5(O)CC[C@H]1[C@H]4C[C@@H](O)[C@@]2(O)CC=CC(=O)[C@]12C
solubility (mole fraction)
Details | in acetone | in chloroform | in ethanol | in ethyl acetate | in methanol | in water
283.2 K | 0.0173 | 0.0046 | 0.0039 | 0.003 | 0.0081 | 0.0012
293.2 K | 0.022 | 0.0047 | 0.0047 | 0.0032 | 0.0092 | 0.0021
298.2 K | 0.0238 | 0.0049 | 0.0058 | 0.0036 | 0.0101 | 0.0027
303.2 K | 0.0265 | 0.0053 | 0.0071 | 0.0042 | 0.0109 | 0.0028
308.2 K | 0.0286 | 0.0058 | 0.0089 | 0.0052 | 0.0122 | 0.0029
313.2 K | 0.0309 | 0.006 | 0.0107 | 0.0059 | 0.0159 | 0.003
